How the values were obtained:
[1] = system: human metastatic prostate cancer PC-3M cells; experiment: Orthotopic PC-3M prostate cancer model in SCID mice; type: in vivo
Source text: PC-3 & PC-3M (human prostate carcinoma). The PC-3 human prostate cancer cell line was originally obtained from the American Type Culture Collection (Rockville, Md.). The PC-3M cell line was kindly provided by Dr. Issac (MD Anderson Cancer Center). This cell variant was derived from a liver metastasis produced by the parental PC-3 cells growing in the spleen of a nude mouse [Pettaway C A, Pathak S, Greene G, et al. Selection of highly metastatic variants of different human prostate carcinomas utilizing orthotopic implantation in nude mice.
Male SCID mice were housed in laminar flow under specific pathogen-free conditions and used at 8-9 weeks of age. Animals were maintained in the LDI facilities approved by the Laboratory Animal Care in accordance with current Canadian regulations and standards for the use of animals for research.
Mice were anesthesized with isofluorane given by inhalation and placed in a supine position. […] A low midline incision was made and the prostate was exposed. Fifty microliters of HBSS containing 1×10^6 cells was injected into a lateral lobe of the prostate. The wound was closed with surgical metal clips in two layers, the muscle layer first and then the skin layer using stainless steel clips (autoclips: 9 mm; Clay Adams Inc., Parsippany, N.J.). […] Control groups received the vehicle alone. Taxol™ was given either ip or iv as indicated.
Primary tumors in the prostate were excised, measured, and weighed. When applicable, immunohistochemistry and H&E staining were conducted on one part of the tumor, fixed in formalin and embedded in paraffin or OCT compound (Miles Inc., Elkhart, Ind.); the later was rapidly frozen in liquid nitrogen, and stored at −70° C. Macroscopically enlarged regional lymph nodes were harvested and the presence of metastatic disease was confirmed by histology.
The in vivo data was analyzed using the Mann-Whitney U test.

[2] = system: Panc-1 human pancreatic carcinoma cells; experiment: Human pancreatic cancer model Panc-1 in SCID mice; type: in vivo; settings: 30 and 60 mg/kg i.p.
Source text: Human pancreatic carcinoma cells (“Panc-1 cells”) were originally received from the ATCC (American Type Culture Collection).
(§1) Only those cells with >95% viability were used for in-vivo studies.
(§2) Once tumors reached a size of approximately 0.7 cm^3, they were removed under sterile condition, sliced into small pieces under a stereo-microscope. Each tissue piece was then reinoculated subcutaneously. Only pieces of approximately the same size and with no signs of necrosis were used.
(§3) At the end of the experiment, mice were sacrificed by cervical dislocation and full autopsies were conducted. A picture was taken of tumors from randomly selected mice. The tumors were then fixed in formalin for pathology examination.

HO-1 (rat spleen) = molecular target: T1, HO-1 (rat spleen) (Rattus norvegicus, UniProt P06762); experiment: HO enzymatic activity in rat spleen microsomal fraction (CO formed from methemalbumin, gas chromatography); type: biochemical; settings: rat spleen microsomes; average ± standard deviation of replicate experiments; read-out: IC50 HO-1 (rat spleen)/μM
T1 construct: Spleen microsomes were used as a source of HO-1; from tissue; host or cells: spleen microsomal fraction of adult male Sprague-Dawley rats
T1 sequence (P06762 1-289): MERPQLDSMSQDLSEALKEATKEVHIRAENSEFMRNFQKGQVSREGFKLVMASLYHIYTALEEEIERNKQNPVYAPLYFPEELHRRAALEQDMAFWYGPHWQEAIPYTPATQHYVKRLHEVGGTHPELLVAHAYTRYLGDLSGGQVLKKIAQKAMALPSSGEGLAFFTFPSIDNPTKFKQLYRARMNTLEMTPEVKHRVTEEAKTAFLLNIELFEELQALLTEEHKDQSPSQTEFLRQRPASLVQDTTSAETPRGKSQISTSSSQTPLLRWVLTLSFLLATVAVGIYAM

[3] = system: SKMEL-V human melanoma cells; experiment: Human melanoma model SKMEL-V+ in SCID mice (pilot study); type: in vivo
Source text: Human melanoma cells (“SKMEL-V cells”) were derived from SKMEL-24 cells (ATCC) by over expression of mouse VEGF.
as §1, §2, §3

[4] = system: OVCAR-3 (human ovarian carcinoma); experiment: Ovarian carcinoma model OVCAR-3 in SCID mice; type: in vivo; settings: QC-56 60 mg/kg/ip
Source text: • Species and strain: […] OVCAR-3 (human ovarian carcinoma). […] Control groups received the vehicle alone.

SKMEL-V+ cells = experiment: Cell proliferation / survival, MTT assay, SKMEL-V+ cells; type: cell-based, human; settings: 6.25 μM to 100 μM, 96 hours
Procedure: Exponentially growing SKMEL-V+ cells (1×10^3) were seeded in 96-well plates in complete medium. […] Cell survival was evaluated 96 hours later using the MTT metabolic assay (Benlimame N, He Q, Jie S, et al. FAK signaling is critical for ErbB-2/ErbB-3 receptor cooperation for oncogenic transformation and invasion. J Cell Biol 2005; 171: 505-16).

[5] = QC-56 30 mg/kg intraperitoneally daily for 12 days, Taxol 10 mg/kg i.p. 3 cycles
[6] = QC-56 30 mg/kg intravenously daily for 12 days, Taxol 10 mg/kg i.p. 3 cycles

Row | Compound | inhibition of tumor growth [1, 5] | reduction in microscopic lymph node metastases [1, 5] | inhibition of tumor growth [1, 6] | reduction in microscopic lymph node metastases [1, 6] | reduction in microscopic lymph node metastases ([1]; QC-56 40 mg/kg daily for 24 days, Taxol 10 mg/kg, 4 cycles) | inhibition of tumor growth compared to untreated mice ([1]; QC-56 40 mg/kg daily for 24 days, Taxol 10 mg/kg, 4 cycles, 3 administrations per cycle) | anti-tumor activity [2] | IC50 (HO-1 (rat spleen)) | anti-tumor activity ([3]; 30 and 60 mg/kg i.p.) | tumor volumes vs vehicle alone ([3]; QC-56 30 mg/kg (P<0.03) and 60 mg/kg (P<0.02)) | potency compared with dacarbazine ([3]; QC-56 30 and 60 mg/kg vs dacarbazine 50 mg/kg) | reduction of tumor growth [4] | tumor size on the day of sacrifice ([4]; CDDP 3 mg/kg) | % cell survival (SKMEL-V+ cells)
1 | Brc1ccc(CCC2(Cn3ccnc3)OCCO2)cc1.Cl [QC-56, 1-((2-(2-(4-Bromophenyl)ethyl)-1,3-dioxolan-2-yl)methyl)-1H-imidazole hydrochloride] | 34% | 59% | 58% | 76% | 48% | 35% | not in the pancreatic cancer model Panc-1 | 1.9 ± 0.2 µM | clear anti-tumor activity | statistically significantly smaller | significantly more potent than dacarbazine | approximately 15% | 1.12±0.08 cm^3 | Dose dependent decrease in cell survival
2 | Brc1ccc(CCCCn2ccnc2)cc1.Cl [QC-199, 1-[4-(4-bromophenyl)butyl]-1H-imidazole hydrochloride] | – | – | – | – | – | – | – | – | – | – | – | – | – | Dose dependent decrease in cell survival
